Patent US12630553B2 (Ascentage Pharma (Suzhou) Co., Ltd., priority 2020, dated 2026)
Counter-ions that a name gives are not always drawn.

Experiments:
[1] = Stability test of salts of compound 1 (HPLC, XRD); assay type: physicochemical
Experimental: 30 mg of the compound was weighed and added into an 8 mL glass bottle, and then was placed under the condition of room temperature (25° C., closed), high humidity (room temperature/75% RH, open) and light (25° C. closed, white light: 5000 Lux, ultraviolet 282 μW/cm2). samples were taken on the 5th, 10th, and 30th day for detection (HPLC, XRD).

[2] = Dynamic water adsorption (DVS) test of compound 1 solid forms; assay type: physicochemical; conditions: about 10 mg solid form
Experimental: About 10 mg of the solid form of the compound 1 was taken for dynamic water adsorption (DVS) test.

[3] = Illumination 5K lux closed, day 5
[4] = Illumination 5K lux closed, day 10

| Compound | TRS (%) ([1]; 25° C. closed, day 5) | XPRD ([1]; 25° C. closed, day 5) | TRS (%) ([1]; 25° C. closed, day 10) | XPRD ([1]; 25° C. closed, day 10) | TRS (%) ([1]; 25° C. closed, day 30) | XPRD ([1]; 25° C. closed, day 30) | TRS (%) ([1]; 25° C./75% RH open, day 5) | XPRD ([1]; 25° C./75% RH open, day 5) | TRS (%) ([1]; 25° C./75% RH open, day 10) | XPRD ([1]; 25° C./75% RH open, day 10) | TRS (%) ([1]; 25° C./75% RH open, day 30) | XPRD ([1]; 25° C./75% RH open, day 30) | TRS (%) [1, 3] | XPRD [1, 3] | TRS (%) [1, 4] | XPRD [1, 4] | TRS (%) ([1]; Initial sample, day 0) | XPRD ([1]; Initial sample, day 0) | XRPD after DVS [2] |
| --- | --- | --- | --- | --- | --- | --- | --- | --- | --- | --- | --- | --- | --- | --- | --- | --- | --- | --- | --- |
| CN[C@@H](C)C(=O)N[C@H]1CN(S(=O)(=O)c2cccc(S(=O)(=O)N3CC[C@H]4CC[C@@H](C(=O)NC(c5ccccc5)c5ccccc5)N4C(=O)[C@@H](NC(=O)[C@H](C)NC)C3)c2)CC[C@H]2CCC(C(=O)NC(c3ccccc3)c3ccccc3)N2C1=O (stereo partly drawn) [Compound 1 di-p-toluenesulfonate amorphous Form XVI] | 1.66% | Amorphous | 1.71% | Amorphous | 1.80% | Amorphous | 1.56% | Amorphous | 1.66% | Amorphous | 1.88% | Amorphous | 1.89% | Amorphous | 2.40% | Amorphous | 1.66% | Amorphous |  |
| CN[C@@H](C)C(=O)N[C@H]1CN(S(=O)(=O)c2cccc(S(=O)(=O)N3CC[C@H]4CC[C@@H](C(=O)NC(c5ccccc5)c5ccccc5)N4C(=O)[C@@H](NC(=O)[C@H](C)NC)C3)c2)CC[C@H]2CCC(C(=O)NC(c3ccccc3)c3ccccc3)N2C1=O (stereo partly drawn) [Compound 1 dimethanesulfonate crystalline Form XVIII] | 2.51% | Crystalline Form | 2.57% | Crystalline | 2.55% | Crystalline |  |  |  |  |  |  | 2.63% | Crystalline | 2.64% | Crystalline | 2.44% | Crystalline | No change |
| CN[C@@H](C)C(=O)N[C@H]1CN(S(=O)(=O)c2cccc(S(=O)(=O)N3CC[C@H]4CC[C@@H](C(=O)NC(c5ccccc5)c5ccccc5)N4C(=O)[C@@H](NC(=O)[C@H](C)NC)C3)c2)CC[C@H]2CCC(C(=O)NC(c3ccccc3)c3ccccc3)N2C1=O (stereo partly drawn) [XIV] |  |  |  |  |  |  |  |  |  |  |  |  |  |  |  |  |  |  | No change |
| CN[C@@H](C)C(=O)N[C@H]1CN(S(=O)(=O)c2cccc(S(=O)(=O)N3CC[C@H]4CC[C@@H](C(=O)NC(c5ccccc5)c5ccccc5)N4C(=O)[C@@H](NC(=O)[C@H](C)NC)C3)c2)CC[C@H]2CCC(C(=O)NC(c3ccccc3)c3ccccc3)N2C1=O (stereo partly drawn) [compound 1 dihydrochloride amorphous form V] | 0.72% | Amorphous | 0.77% | Amorphous | 0.83% | Amorphous | 0.81% | Amorphous | 0.77% | Amorphous | 0.79% | Amorphous | 1.81% | Amorphous | 2.54% | Amorphous | 0.73% | Amorphous | No change |
| CN[C@@H](C)C(=O)N[C@H]1CN(S(=O)(=O)c2cccc(S(=O)(=O)N3CC[C@H]4CC[C@@H](C(=O)NC(c5ccccc5)c5ccccc5)N4C(=O)[C@@H](NC(=O)[C@H](C)NC)C3)c2)CC[C@H]2CCC(C(=O)NC(c3ccccc3)c3ccccc3)N2C1=O (stereo partly drawn) [compound 1 disulfate amorphous form XXIII] | 2.45% | Amorphous | 2.72% | Amorphous | 4.83% | Amorphous | 2.69% | Amorphous | 3.14% | Amorphous | 5.13% | Amorphous | 3.66% | Amorphous | 5.50% | Amorphous | 1.96% | Amorphous |  |
